From patent US7368137B2, “Smilagenin and its use” (priority 1999, dated 2008)

Experiments:
[1] = system: muscarinic receptors on cultured cardiac muscle cells; test: Muscarinic receptor expression on cultured neonatal cardiac muscle cells (tritiated QNB binding); format: cell-based, Sprague Dawley rats; conditions: NS = No significant effect
Procedure: 3. Cultured cardiac muscle cells obtained from neonatal Sprague Dawley rats. The cardiac muscle cells express muscarinic receptors, typically m2. The level of these receptors fails on prolonged culture and the effects of compounds of interest in preventing the fall in receptor numbers was investigated.
Cardiac muscle cells were isolated from the ventricular muscle of neonatal Sprague Dawley rats using standard techniques. Cells were cultured in vitro and muscarinic receptor numbers expressed on cell surfaces membrane fragments after homogenization of cells harvested at various time points were estimated using specific binding of tritiated QNB. […] The experiments were therefore designed to investigate the effects of the various compounds in inhibiting this decline in receptor numbers.

[2] = system: m2 receptors on CHO cells; test: Expression of m2 receptors on CHO cells transfected with DNA for the m2 receptor (tritiated QNB binding); format: cell-based; conditions: for Effect on receptor expression - given as % increase compared to control (negative values in brackets): DMSO control, NS = No significant effect
m2 receptors on CHO cells, sequence (P08172 whole entry, the tested form may be a part): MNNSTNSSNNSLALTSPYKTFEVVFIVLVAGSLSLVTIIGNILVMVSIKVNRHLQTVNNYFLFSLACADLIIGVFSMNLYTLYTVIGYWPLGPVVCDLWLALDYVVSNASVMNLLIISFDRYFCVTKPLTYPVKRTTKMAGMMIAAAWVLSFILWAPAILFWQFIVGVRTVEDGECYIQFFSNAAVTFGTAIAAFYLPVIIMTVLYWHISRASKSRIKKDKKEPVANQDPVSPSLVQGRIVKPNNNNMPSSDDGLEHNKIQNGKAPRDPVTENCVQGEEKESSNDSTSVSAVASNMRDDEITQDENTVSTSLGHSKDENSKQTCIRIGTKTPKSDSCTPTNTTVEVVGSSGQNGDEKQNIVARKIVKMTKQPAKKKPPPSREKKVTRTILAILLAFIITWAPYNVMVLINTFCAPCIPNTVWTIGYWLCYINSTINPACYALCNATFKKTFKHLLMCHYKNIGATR
Procedure: 1. Chinese hamster ovary (CHO) cells transfected with the a DNA fragment coding for a muscarinic receptor. The cell line used-for the majority of the experiments was a cell line expressing the m2 receptor.
The-effects of various compounds on the expression of m2 receptors on CHO cells transfected with DNA for the m2 receptor were investigated. Receptor numbers were assayed using tritiated QNB binding and subtracting non-specific binding. Compounds were dissolved in DMSO and DMSO was used as a control. Compounds were tested at a range of final concentrations. Compounds were also tested in the presence and absence of tamoxifen to try to distinguish an oestrogen receptor mediated mechanism. The results are summarized in the Table 2 below, where the compound used in the invention appears in bold, and data on other sapogenins is given for comparative purposes: […]

oestrogen receptor = test: Oestrogenic activity
Description: (§1) In identifying compounds that would have use in the treatment of SDAT and other diseases characterized by reductions in receptor numbers or synaptic transmission, the inventors have given consideration to the need to identify compounds that would-have the desired effect but would be devoid of any oestrogenic effects, as these would be unacceptable, particularly in male patients. A number of the compounds claimed to have activity in patent application DE 4303214A1 have marked oestrogenic activity and are therefore unacceptable.

Progesterone receptor = biological target: T1, Progesterone receptor (Homo sapiens, UniProt P06401); test: Activity at steroid receptors: progesterone
T1 sequence (P06401 1-933): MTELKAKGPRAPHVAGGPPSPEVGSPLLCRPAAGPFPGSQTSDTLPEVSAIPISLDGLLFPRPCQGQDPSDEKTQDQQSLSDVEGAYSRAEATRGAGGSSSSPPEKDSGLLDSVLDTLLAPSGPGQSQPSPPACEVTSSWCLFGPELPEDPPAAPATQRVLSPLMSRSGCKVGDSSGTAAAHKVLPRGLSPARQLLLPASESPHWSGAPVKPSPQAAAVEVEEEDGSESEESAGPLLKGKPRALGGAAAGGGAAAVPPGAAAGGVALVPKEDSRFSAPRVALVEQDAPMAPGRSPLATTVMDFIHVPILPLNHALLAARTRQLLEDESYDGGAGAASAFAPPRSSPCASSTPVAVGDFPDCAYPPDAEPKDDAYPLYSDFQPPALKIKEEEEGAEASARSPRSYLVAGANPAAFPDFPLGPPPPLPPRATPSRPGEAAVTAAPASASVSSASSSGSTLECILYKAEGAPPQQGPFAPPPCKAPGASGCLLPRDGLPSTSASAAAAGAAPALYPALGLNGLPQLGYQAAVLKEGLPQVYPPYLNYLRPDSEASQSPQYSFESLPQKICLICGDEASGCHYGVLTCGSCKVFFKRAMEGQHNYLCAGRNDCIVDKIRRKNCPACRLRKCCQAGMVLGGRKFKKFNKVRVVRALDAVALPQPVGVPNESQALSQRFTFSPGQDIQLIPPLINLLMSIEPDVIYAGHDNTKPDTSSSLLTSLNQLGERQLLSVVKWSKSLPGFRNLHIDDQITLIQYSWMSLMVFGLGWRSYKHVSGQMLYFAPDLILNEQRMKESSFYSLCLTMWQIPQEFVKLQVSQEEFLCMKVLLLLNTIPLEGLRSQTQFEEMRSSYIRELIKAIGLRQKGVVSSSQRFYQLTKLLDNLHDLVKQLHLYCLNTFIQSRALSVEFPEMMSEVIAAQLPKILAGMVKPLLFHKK
Description: as §1

Glucocorticoid receptor = biological target: T2, Glucocorticoid receptor (Homo sapiens, UniProt P04150); test: Activity at steroid receptors: glucocorticoid
T2 sequence (P04150 1-777): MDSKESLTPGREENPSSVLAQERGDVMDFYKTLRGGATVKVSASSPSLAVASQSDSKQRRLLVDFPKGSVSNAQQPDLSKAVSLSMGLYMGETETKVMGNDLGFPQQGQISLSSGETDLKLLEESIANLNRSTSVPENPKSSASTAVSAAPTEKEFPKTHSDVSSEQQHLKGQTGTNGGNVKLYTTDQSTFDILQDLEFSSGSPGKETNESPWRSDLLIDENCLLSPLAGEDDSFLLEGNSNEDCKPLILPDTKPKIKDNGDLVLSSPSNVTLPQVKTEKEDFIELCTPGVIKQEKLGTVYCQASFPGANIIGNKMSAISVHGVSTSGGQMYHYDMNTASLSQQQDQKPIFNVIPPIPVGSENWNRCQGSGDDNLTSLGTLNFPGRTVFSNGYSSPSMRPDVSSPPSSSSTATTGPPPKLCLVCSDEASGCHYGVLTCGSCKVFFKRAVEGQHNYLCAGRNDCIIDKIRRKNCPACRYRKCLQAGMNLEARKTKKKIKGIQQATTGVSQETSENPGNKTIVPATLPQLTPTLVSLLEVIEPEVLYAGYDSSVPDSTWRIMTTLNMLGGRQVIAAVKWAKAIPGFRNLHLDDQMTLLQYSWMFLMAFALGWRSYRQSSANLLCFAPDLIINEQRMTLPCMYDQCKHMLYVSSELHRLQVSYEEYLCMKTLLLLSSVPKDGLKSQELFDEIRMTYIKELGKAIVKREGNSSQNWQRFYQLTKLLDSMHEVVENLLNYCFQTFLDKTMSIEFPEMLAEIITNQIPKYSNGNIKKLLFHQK
Description: as §1

Testosterone receptor = biological target: T3, Testosterone receptor (Homo sapiens, UniProt P10275); test: Activity at steroid receptors: testosterone
T3 sequence (P10275 1-920): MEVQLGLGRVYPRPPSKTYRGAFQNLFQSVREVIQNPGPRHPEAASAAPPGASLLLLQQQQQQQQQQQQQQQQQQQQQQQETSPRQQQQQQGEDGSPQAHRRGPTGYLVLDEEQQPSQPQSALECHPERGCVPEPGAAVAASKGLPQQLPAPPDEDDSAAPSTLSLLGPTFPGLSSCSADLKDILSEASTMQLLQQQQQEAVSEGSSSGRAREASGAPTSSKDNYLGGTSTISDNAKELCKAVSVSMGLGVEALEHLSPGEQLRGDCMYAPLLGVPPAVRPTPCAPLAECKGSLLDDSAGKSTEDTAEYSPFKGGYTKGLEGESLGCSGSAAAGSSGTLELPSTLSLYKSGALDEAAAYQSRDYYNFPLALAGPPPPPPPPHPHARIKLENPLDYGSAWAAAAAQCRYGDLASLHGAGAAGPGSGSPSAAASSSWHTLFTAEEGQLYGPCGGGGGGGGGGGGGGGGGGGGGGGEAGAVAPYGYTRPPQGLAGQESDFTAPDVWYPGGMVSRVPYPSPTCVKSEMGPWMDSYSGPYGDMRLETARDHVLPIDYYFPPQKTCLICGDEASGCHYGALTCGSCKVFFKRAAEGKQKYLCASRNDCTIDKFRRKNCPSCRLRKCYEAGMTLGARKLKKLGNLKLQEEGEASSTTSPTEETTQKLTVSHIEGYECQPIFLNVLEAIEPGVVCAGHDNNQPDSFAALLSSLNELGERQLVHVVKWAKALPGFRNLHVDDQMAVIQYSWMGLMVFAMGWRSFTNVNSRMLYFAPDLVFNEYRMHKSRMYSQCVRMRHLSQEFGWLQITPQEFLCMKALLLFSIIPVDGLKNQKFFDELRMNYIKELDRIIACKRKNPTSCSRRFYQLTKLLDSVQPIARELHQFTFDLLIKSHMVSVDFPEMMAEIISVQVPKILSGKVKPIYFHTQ
Description: as §1

[3] = system: muscarinic receptors in PC12 cells; test: Muscarinic receptor number in PC12 cells incubated with β-amyloid (radio-labeled ligand binding); format: cell-based
Procedure: Other in vitro assays have been employed to establish the effects of smilagenin. In particular various neuroblastoma cell lines including SKN-SN and SH-SY5Y cells as well as phaechromoacytoma cell lines have been cultured in vitro in the presence of β-amyloid fragments or serum depletion. […] These techniques included Trypan blue exclusion, chemiluminescence and release of lactate dehydrogenase. Of most interest was the observation that incubation of cells, in particular PC12 cells, with β-amyloid reduced the number of muscarinic receptors measured using radio-labeled ligand binding techniques.

[4] = system: recombinant human muscarinic receptors in CHO cells; test: Muscarinic receptor density in CHO cells expressing recombinant human muscarinic receptors ([3H]-QNB); format: cell-based; conditions: smilagenin at 1 and 10 μM; FIG. 2
Procedure: In a CHO cell line expressing recombinant human muscarinic receptors in vitro, the number of muscarinic receptors tends to decline with time. Smilagenin (1-10 μM) incubated for 72 hours increases muscarinic receptor density.
Effect of smilagenin on muscarinic receptor density in CHO cells expressing recombinant human muscarinic receptors.
Chinese hamster ovary (CHO) cells expressing high levels of receptor (˜2.2 pmoles receptor/mg protein) were cultured in flasks (150 ml) for 24 hours before the start of the experiment. Vehicle (DMSO) and smilagenin (at 1 and 10 μM) were added to the medium for 48 h. The culture medium was discarded, the cells scraped off and resuspended in Hanks solution, centrifuged and m-receptor levels determined by incubating with [^3H]-QNB for 30 min followed by liquid scintillation counting. Protein levels were determined by a micro Lowry method.

[5] = system: muscarinic (M) receptor in the brain; test: Single point analysis of brain M receptor density in aged rats; format: in vivo, Sprague-Dawley rats; conditions: 18 mg/kg/day in chow over 3 months; 23-month-old rats; FIG. 3
Procedure: Methods: Single point analysis of brain M receptor density.
Sprague-Dawley rats, 23-month-old, (i.e. aged) were divided into 2 groups, aged-control and aged+smilagenin. Smilagenin (18 mg/kg/day) was mixed in the chow over the 3 month period; Male 4-6 month old rats acted as young controls. At the end of the 3-month treatment period, pairs of treated and control animals were sacrificed by cervical dislocation and the intact brain removed. Single point analysis of brain M receptor density was obtained.

aged Sprague-Dawley rats = test: Cognitive function in the Y-maze test in aged rats; format: in vivo; conditions: 18 mg/kg/day in chow, 3 months intake; rats aged 23 months; FIG. 4
Procedure: Methods: Cognitive function in the Y-maze test
Sprague-Dawley rats aged 23 months (i.e. aged) were divided into aged-control or aged+smilagenin treatment group. Rats aged 3 to 4 months acted as young controls. The treatment group received 18 mg/kg/day of smilagenin in chow. Chow without smilagenin was given to each rat after the chow containing smilagenin had been consumed. Three months later the animals were tested in the Y-maze as follows; an equilateral Y-shaped maze was used composed of three 45 cm arms with copper rods in the floor at the end of each arm which conduct electricity and which were 0.2 cm in diameter, 14 cm in length and with a 1 cm gap between them. There were 15 W signal lights at each end. A safe region was indicated by a light signal in an arm where there was no electricity. If a rat moved to a safe region, a correct reaction was recorded. If it moved to an arm where there was no light, an error reaction was recorded. Following the response, an electric shock was again given after a 5 seconds interval. Twenty trials in total were conducted and the correct reaction rate was obtained: number of correct reactions/(20)/mean response time. Seven such training sessions were completed over seven days. Memory tests were then repeated 15 and 30 days later (=4 months) using the same techniques as just described.

[6] = molar concentration of compound 10^−5

muscarinic receptors on cultured cardiac muscle cells, sequence (P10980 whole entry): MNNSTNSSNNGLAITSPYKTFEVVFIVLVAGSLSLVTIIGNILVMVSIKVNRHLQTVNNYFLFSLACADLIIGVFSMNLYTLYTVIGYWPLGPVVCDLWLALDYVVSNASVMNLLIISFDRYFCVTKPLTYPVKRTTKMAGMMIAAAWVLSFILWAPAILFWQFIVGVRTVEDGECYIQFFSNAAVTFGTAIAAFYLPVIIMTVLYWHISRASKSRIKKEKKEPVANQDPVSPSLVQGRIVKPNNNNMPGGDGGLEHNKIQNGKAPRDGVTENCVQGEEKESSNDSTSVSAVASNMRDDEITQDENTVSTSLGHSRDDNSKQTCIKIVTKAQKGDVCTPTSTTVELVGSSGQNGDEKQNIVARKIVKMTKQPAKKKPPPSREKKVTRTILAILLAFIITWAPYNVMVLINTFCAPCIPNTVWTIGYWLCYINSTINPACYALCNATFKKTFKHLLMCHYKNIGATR

Compound: Astragaloside
- Concentration of compound causing a significant increase in number of receptors expressed on neonatal cardiac muscle after 10 days in vitro culture [1]: 10^−5M

Compound: C[C@@H]1CC[C@@]2(OC1)O[C@H]1C[C@H]3[C@@H]4C[C@@H](O)[C@@]5(O)C[C@@H](O)CC[C@]5(C)[C@H]4CC[C@]3(C)[C@H]1[C@@H]2C [Anzurogenin D, reference compound]
- Effect on receptor expression - given as % increase compared to control (negative values in brackets) [2, 6]: 22%
- Concentration of compound causing a significant increase in number of receptors expressed on neonatal cardiac muscle after 10 days in vitro culture [1]: 10^−6M

Compound: smilagenin
- Effect on receptor expression - given as % increase compared to control (negative values in brackets) [2, 6]: 57%
- Effect on receptor expression - given as % increase compared to control (negative values in brackets) ([2]; molar concentration of compound 10^−6): 18%
- Effect of tamoxifen on the increase in muscarinic receptor number on CHO cells ([2]; tested in the presence and absence of tamoxifen): not antagonized by tamoxifen
- Concentration of compound causing a significant increase in number of receptors expressed on neonatal cardiac muscle after 10 days in vitro culture [1]: 10^−6M
- Oestrogenic activity (oestrogen receptor): does not display oestrogenic activity
- Activity at progesterone receptor (Progesterone receptor): no activity
- Activity at glucocorticoid receptor (Glucocorticoid receptor): no activity
- Activity at testosterone receptor (Testosterone receptor): no activity
- Effect on β-amyloid-induced reduction in muscarinic receptor numbers [3]: ameliorated
- Effect on muscarinic receptor number/density over the culturing period [4]: prevents the decrease in muscarinic receptor number in a concentration-dependent manner
- Brain M receptor numbers compared to aged controls [5]: increased M receptor numbers
- Cognitive function (learning and memory performance) in Y-maze (aged Sprague-Dawley rats): reversed the decline in cognitive function
